# Experimental data reported in patent publication US6441038B1, “Treatment of fatigue, head injury and stroke” (Laxdale Limited, priority 1999, dated 2002).
# Key:
# [1] = tested on: brain lesions / LC function; settings: animal studies, literature; cited from earlier work
# [2] = tested on: post-stroke depression and fatigue; assay: Case History No. 2: depression and fatigue after stroke; format: in vivo, human; settings: person; antidepressant alone
SMILES,effect on LC function and recovery of motor function after brain lesions [1],effect on post-stroke depression and fatigue [2]
CNCCCN1c2ccccc2CCc2ccccc21 [desipramine],able to enhance,
CNCCC(Oc1ccc(C(F)(F)F)cc1)c1ccccc1 (stereo not shown) [fluoxetine],,without much success
CN(C)CCCN1c2ccccc2CCc2ccccc21 [imipramine],,without much success
CN(CCCN1c2ccccc2CCc2ccccc21)CC(=O)c1ccc(Cl)cc1 [lofepramine],,without much success
